The record followed here is patent US20230136562A1, “SPIROUREA DERIVATIVES” (Idorsia Pharmaceuticals Ltd, priority 2020, published 2023).

Where two headings read alike, the source gives them in different places.

This assay concerns primary neuronal cultures from embryonic rat brains. As to the kind of experiment: Rat oscillation assay (FLIPR, neuronal calcium oscillations). It is filed as cell-based. Put shortly:
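Cortical neurons from E18 Wistar rat embryos, cultured 8–10 days at high density, loaded with 1 μM Fluo-8 AM; calcium oscillations recorded by FLIPR once per second in Mg-free HBSS with 2 mM CaCl2, 20 mM HEPES, pH 7.4. Two acquisitions ("Acute", 500 sec, compound added at 250 sec; "20 min"), ± Kv7 blocker XE-991.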

Where [1] appears, read: Rattus norvegicus, 20 min, AUC of fluorescence measured 20 min after compound addition, read-out: FLIPR: IC50 [nM] 20 min.
Setting [2] is: Rattus norvegicus, Acute phase, ratio of AUC fluorescence before and after compound addition, read-out: FLIPR: IC50 [nM] acute.
Setting [3] is: AUC of fluorescence measured 20 min after compound addition, read-out: FLIPR: IC50 [nM] 20 min.
The mark [4] stands for this setting: Acute phase, ratio of AUC fluorescence before and after compound addition, read-out: FLIPR: IC50 [nM] acute.

The term IC50 denotes the point on the concentration scale where inhibition reaches its midpoint. As to `CC(C)OCC(NC(=O)NC1CC2(CCC2)C1)c1cccc(C(F)(F)F)c1` (racemic) [Example 72, (±)-1-[2-Isopropoxy-1-(3-trifluoromethyl-phenyl)-ethyl]-3-spiro[3.3]hept-2-yl-urea], the 50% inhibitory concentration (IC50) reads like this: under setting [1], 238 nM; under setting [2], 266 nM.
On to `C[C@H](NC(=O)NC1CC2(CCC2)C1)c1cc(C(F)(F)F)ccc1Br` (single isomer, unassigned) [Example 190], for which the IC50 reads like this: under setting [1], 200 nM; under setting [2], 286 nM. Moreover, the “activity compared with the (R) enantiomer” value (assay not given) is on record as “more active than the (R) enantiomer”.
Take `CSCCC(NC(=O)NC1CC2(CCC2)C1)c1cccc(C(F)(F)F)c1` (racemic) [Example 75, (±)-1-[3-Methylsulfanyl-1-(3-trifluoromethyl-phenyl)-propyl]-3-spiro[3.3]hept-2-yl-urea]: the IC50 is, setting by setting: under setting [1], 129 nM; under setting [2], 106 nM.
On the same counts, the results for `COCC(Oc1cccc(CNC(=O)NC2CC3(CCC3)C2)n1)C(F)(F)F` (racemic) [Example 104, (±)-1-Spiro[3.3]hept-2-yl-3-[6-(2,2,2-trifluoro-1-methoxymethyl-ethoxy)-pyridin-2-ylmethyl]-urea] are 295 nM and 292 nM.
On the same counts, the results for `O=C(NCc1cccc(C(F)F)c1)NC1CC2(CCC2)C1` [Example 15, 1-(3-Difluoromethyl-benzyl)-3-spiro[3.3]hept-2-yl-urea] are 126 nM and 124 nM.
On the same counts, the results for `O=C(NC1CC2(CCC2)C1)NC(c1cccc(C(F)(F)F)c1)C(F)(F)F` (stereo not drawn) [Example 58, 1-Spiro[3.3]hept-2-yl-3-[2,2,2-trifluoro-1-(3-trifluoromethyl-phenyl)-ethyl]-urea] are 16 nM and 20 nM.
As to `COC[C@H](NC(=O)NC1CC2(CC2)C1)c1ccnc(OCC(F)(F)F)c1` (single isomer, unassigned) [Example 188], the IC50 stood at 5.6 nM under setting [1] and 5.3 nM under setting [2].
On to `CN(C)CC(Oc1cc(CNC(=O)NC2CC3(CCC3)C2)ccn1)C(F)(F)F` (racemic) [Example 106, (±)-1-[2-(1-Dimethylaminomethyl-2,2,2-trifluoro-ethoxy)-pyridin-4-ylmethyl]-3-spiro[3.3]hept-2-yl-urea], for which the IC50 was found to be 757 nM under setting [1] and 535 nM under setting [2].
On the same counts, the results for `O=C(NCc1cc(F)cc(C(F)(F)F)c1)NC1CC2(CC2)C1` [Example 142, 1-(3-Fluoro-5-trifluoromethyl-benzyl)-3-spiro[2.3]hex-5-yl-urea] are 277 nM and 204 nM.
On the same counts, the results for `CC(NC(=O)NC1CC2(CCC2)C1)c1ccnc(OCC(F)(F)F)c1` (racemic) [Example 93, (±)-1-Spiro[3.3]hept-2-yl-3-{1-[2-(2,2,2-trifluoro-ethoxy)-pyridin-4-yl]-ethyl}-urea] are 2.2 nM and 1.9 nM.
With `O=C(NC1CC2(CCC2)C1)NC(c1cccc(OC(F)F)c1)C1CC1` (racemic) [Example 25, (±)-1-[Cyclopropyl-(3-difluoromethoxy-phenyl)-methyl]-3-spiro[3.3]hept-2-yl-urea], the IC50 is 19 nM under setting [1] and 10 nM under setting [2].
In the case of `O=C(NCc1cccc(OCC(F)(F)F)c1)NC1CC2(CCC2)C1` [Example 14, 1-Spiro[3.3]hept-2-yl-3-[3-(2,2,2-trifluoro-ethoxy)-benzyl]-urea], the 50% inhibitory concentration (IC50) under setting [1] was 27 nM and the IC50 under setting [2] worked out at 31 nM.
The corresponding values for `C[C@H](NC(=O)NC1CC2(CC2)C1)c1ccnc(OC(F)F)c1` (single isomer, unassigned) [Example 189] are 196 nM and 221 nM.
Consider `CC(Oc1cccc(C2(NC(=O)NC3CC4(CCC4)C3)CC2)c1)C(F)(F)F` (single isomer, unassigned) [Example 170, 1-Spiro[3.3]hept-2-yl-3-{1-[3-(2,2,2-trifluoro-1-methyl-ethoxy)-phenyl]-cyclopropyl}-urea], for which the IC50 under setting [3] came to 59 nM and the half-maximal inhibitory concentration (IC50) under setting [4] came to 76 nM.
Take `O=C(NC1CC2(CCC2)C1)NC1(c2cccc(OC(F)F)c2)CC1` [Example 7, 1-[1-(3-Difluoromethoxy-phenyl)-cyclopropyl]-3-spiro[3.3]hept-2-yl-urea]: the concentration for half-maximal inhibition (IC50) is, setting by setting: under setting [1], 142 nM; under setting [2], 85 nM.
For the compound `O=C(NC1CC2(CC2)C1)NC1(c2cccc(OC(F)F)c2)CC1` [Example 136, 1-[1-(3-Difluoromethoxy-phenyl)-cyclopropyl]-3-spiro[2.3]hex-5-yl-urea], the concentration for half-maximal inhibition (IC50) by setting is: under setting [1], 386 nM; under setting [2], 334 nM.
Take `CC(NC(=O)NC1CC2(CC2)C1)c1cccc(OC(F)(F)F)c1` (racemic) [Example 141, (±)-1-Spiro[2.3]hex-5-yl-3-[1-(3-trifluoromethoxy-phenyl)-ethyl]-urea]: the 50% inhibitory concentration (IC50) under setting [1] stood at 26 nM and the IC50 under setting [2] was 22 nM.
On the same counts, the results for `O=C(NCc1nccc(OCC(F)(F)F)n1)NC1CC2(CCC2)C1` [Example 112, 1-Spiro[3.3]hept-2-yl-3-[4-(2,2,2-trifluoro-ethoxy)-pyrimidin-2-ylmethyl]-urea] are 1420 nM and 1100 nM.
On the same counts, the results for `O=C(NCc1cccc(C(F)(F)F)c1F)NC1CC2(CC2)C1` [Example 149, 1-(2-Fluoro-3-trifluoromethyl-benzyl)-3-spiro[2.3]hex-5-yl-urea] are 103 nM and 98 nM.
`COc1ccc(C(F)(F)F)cc1C(C)NC(=O)NC1CC2(CCC2)C1` (racemic) [Example 20, (±)-1-[1-(2-Methoxy-5-trifluoromethyl-phenyl)-ethyl]-3-spiro[3.3]hept-2-yl-urea]: the IC50 is 304 nM under setting [1] and 508 nM under setting [2].
The corresponding values for `O=C(NCc1cc(C(F)(F)F)ccc1F)NC1CC2(CC2)C1` [Example 151, 1-(2-Fluoro-5-trifluoromethyl-benzyl)-3-spiro[2.3]hex-5-yl-urea] are 419 nM and 269 nM.
The corresponding values for `COc1ccc(OCC(F)(F)F)cc1C(C)NC(=O)NC1CC2(CCC2)C1` (racemic) [Example 40, (±)-1-{1-[2-Methoxy-5-(2,2,2-trifluoro-ethoxy)-phenyl]-ethyl}-3-spiro[3.3]hept-2-yl-urea] are 382 nM and 351 nM.
For the compound `CC(NC(=O)NC1CC2(CCC2)C1)c1cccc(S(F)(F)(F)(F)F)c1` (racemic) [Example 34, (±)-1-(1-(3-(pentafluoro-λ^6-sulfaneyl)phenyl)ethyl)-3-(spiro[3.3]heptan-2-yl)urea], the IC50 is, setting by setting: under setting [1], 8.5 nM; under setting [2], 6.7 nM.
`O=C(NC1CC2(CCC2)C1)N[C@H](c1cccc(C(F)(F)F)c1)C(F)(F)F` (single isomer, unassigned) [Example 178]: the half-maximal inhibitory concentration (IC50) under setting [1] was 11 nM and the IC50 under setting [2] came out at 16 nM.
For the compound `CC(Oc1cccc(C2(NC(=O)NC3CC4(CC4)C3)CC2)c1)C(F)(F)F` (racemic) [Example 135, (±)-1-Spiro[2.3]hex-5-yl-3-{1-[3-(2,2,2-trifluoro-1-methyl-ethoxy)-phenyl]-cyclopropyl}-urea], the IC50 was 115 nM under setting [1] and 133 nM under setting [2].
The corresponding values for `COc1c(C(C)NC(=O)NC2CC3(CC3)C2)cccc1C(F)(F)F` (racemic) [Example 133, (±)-1-[1-(2-Methoxy-3-trifluoromethyl-phenyl)-ethyl]-3-spiro[2.3]hex-5-yl-urea] are 670 nM and 396 nM.
On the same counts, the results for `C[C@@H](NC(=O)NC1CC2(CCC2)C1)c1ccnc(OC(F)F)c1` (single isomer, unassigned) [Example 167] are 1750 nM and 1280 nM.
On the same counts, the results for `O=C(NC1CC2(CCC2)C1)NC(CO)c1cc(OCC(F)(F)F)ncn1` (racemic) [Example 83, (±)-1-{2-Hydroxy-1-[6-(2,2,2-trifluoro-ethoxy)-pyrimidin-4-yl]-ethyl}-3-spiro[3.3]hept-2-yl-urea] are 100 nM and 93 nM.
As to `O=C(NCc1cccc(OC(F)(F)F)c1F)NC1CC2(CCC2)C1` [Example 8, 1-(2-Fluoro-3-trifluoromethoxy-benzyl)-3-spiro[3.3]hept-2-yl-urea], the IC50 is, setting by setting: under setting [1], 35 nM; under setting [2], 78 nM.
Consider `CC(Oc1nccc(CNC(=O)NC2CC3(CCC3)C2)n1)C(F)(F)F` (single isomer, unassigned) [Example 180, 1-Spiro[3.3]hept-2-yl-3-[2-(-2,2,2-trifluoro-1-methyl-ethoxy)-pyrimidin-4-ylmethyl]-urea], for which the IC50 came out at 78 nM under setting [3] and 62 nM under setting [4].
Take `CC(NC(=O)NC1CC2(CC2)C1)c1cccc(OC(F)F)c1` (racemic) [Example 124, (±)-1-[1-(3-Difluoromethoxy-phenyl)-ethyl]-3-spiro[2.3]hex-5-yl-urea]: the 50% inhibitory concentration (IC50) was 280 nM under setting [1] and 69 nM under setting [2].
Regarding `CCOCCC(NC(=O)NC1CC2(CCC2)C1)c1cccc(C(F)(F)F)c1` (racemic) [Example 73, (±)-1-[3-Ethoxy-1-(3-trifluoromethyl-phenyl)-propyl]-3-spiro[3.3]hept-2-yl-urea], the IC50 under setting [1] was 244 nM and the IC50 under setting [2] came to 305 nM.
On to `O=C(NC1CC2(CC2)C1)NC(CO)c1cc(OCC(F)(F)F)ncn1` (racemic) [Example 122, (±)-1-{2-Hydroxy-1-[6-(2,2,2-trifluoro-ethoxy)-pyrimidin-4-yl]-ethyl}-3-spiro[2.3]hex-5-yl-urea], for which the IC50 is, setting by setting: under setting [1], 658 nM; under setting [2], 339 nM.
On the same counts, the results for `O=C(NCc1cc(C(F)(F)F)ccc1F)NC1CC2(CCC2)C1` [Example 16, 1-(2-Fluoro-5-trifluoromethyl-benzyl)-3-spiro[3.3]hept-2-yl-urea] are 196 nM and 224 nM.
